Measured values taken from the supplement of paper PMC10307832.

Columns and labels:
Assay in all cases: relative viability (nuclei count vs DMSO), 5 days (fraction); higher = more cells survive
NCI-H2347 = tested on: NCI-H2347
Summary of the method: (§1)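 Lung cancer cell lines were seeded in 1536-well plates and dosed by pin tool the next day, with either a single drug or a fixed anchor-drug dose combined with five library-drug doses (not always all listed) spaced in √10 steps. Five days later, one step fixed the cells and stained their nuclei (final 0.05% Triton X-100, 1% formaldehyde, 1 ug/ml Hoechst), and nuclei were counted on 4× images. Relative viability is the nuclei count in treated wells divided by the count in vehicle wells, and each value is the median of duplicate plates.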

NCI-H2009 = tested on: NCI-H2009
Summary of the method: as §1

NCI-H661 = tested on: NCI-H661
Summary of the method: as §1

EMC-BAC-2 = tested on: EMC-BAC-2
Summary of the method: as §1

NCI-H1734 = tested on: NCI-H1734
Summary of the method: as §1

HOP-62 = tested on: HOP-62
Summary of the method: as §1

NCI-H727 = tested on: NCI-H727
Summary of the method: as §1

NCI-H2085 = tested on: NCI-H2085
Summary of the method: as §1

NCI-H647 = tested on: NCI-H647
Summary of the method: as §1

LCLC-97TM1 = tested on: LCLC-97TM1
Summary of the method: as §1

H3255 = tested on: H3255
Summary of the method: as §1

NCI-H1993 = tested on: NCI-H1993
Summary of the method: as §1

SK-LU-1 = tested on: SK-LU-1
Summary of the method: as §1

EPLC-272H = tested on: EPLC-272H
Summary of the method: as §1

NCI-H1563 = tested on: NCI-H1563
Summary of the method: as §1

LXF-289 = tested on: LXF-289
Summary of the method: as §1

NCI-H2126 = tested on: NCI-H2126
Summary of the method: as §1

NCI-H2023 = tested on: NCI-H2023
Summary of the method: as §1

NCI-H1915 = tested on: NCI-H1915
Summary of the method: as §1

SW 1573 = tested on: SW 1573
Summary of the method: as §1

PC-14 = tested on: PC-14
Summary of the method: as §1

NCI-H322M = tested on: NCI-H322M
Summary of the method: as §1

CC(=O)O[C@@]12CO[C@@H]1C[C@H](O)[C@@]1(C)C(=O)[C@H](O)C3=C(C)[C@@H](OC(=O)[C@H](O)[C@@H](NC(=O)OC(C)(C)C)c4ccccc4)C[C@@](O)([C@@H](OC(=O)c4ccccc4)[C@H]21)C3(C)C [Docetaxel] + CCNC(=O)c1noc(-c2cc(C(C)C)c(O)cc2O)c1-c1ccc(CN2CCOCC2)cc1 [Luminespib] (partner 0.01 µM)
relative viability (NCI-H2347; first compound 0.0002 µM): 0.513 | relative viability (NCI-H2347; first compound 0.000632 µM): 0.631 | relative viability (NCI-H2347; first compound 0.002 µM): 0.39 | relative viability (NCI-H2347; first compound 0.006325 µM): 0.311 | relative viability (NCI-H2347; first compound 0.02 µM): 0.34 | relative viability (NCI-H2009; first compound 0.0002 µM): 0.979 | relative viability (NCI-H2009; first compound 0.000632 µM): 1.09 | relative viability (NCI-H2009; first compound 0.002 µM): 0.956 | relative viability (NCI-H2009; first compound 0.006325 µM): 0.78 | relative viability (NCI-H2009; first compound 0.02 µM): 0.261 | relative viability (NCI-H661; first compound 0.0002 µM): 0.782 | relative viability (NCI-H661; first compound 0.000632 µM): 0.933 | relative viability (NCI-H661; first compound 0.002 µM): 0.707 | relative viability (NCI-H661; first compound 0.006325 µM): 0.432 | relative viability (NCI-H661; first compound 0.02 µM): 0.323 | relative viability (EMC-BAC-2; first compound 0.0002 µM): 1.15 | relative viability (EMC-BAC-2; first compound 0.000632 µM): 1.08 | relative viability (EMC-BAC-2; first compound 0.002 µM): 0.385 | relative viability (EMC-BAC-2; first compound 0.006325 µM): 0.368 | relative viability (EMC-BAC-2; first compound 0.02 µM): 0.238 | relative viability (NCI-H1734; first compound 0.0002 µM): 0.213 | relative viability (NCI-H1734; first compound 0.000632 µM): 0.197 | relative viability (NCI-H1734; first compound 0.002 µM): 0.175 | relative viability (NCI-H1734; first compound 0.006325 µM): 0.161 | relative viability (NCI-H1734; first compound 0.02 µM): 0.14 | relative viability (HOP-62; first compound 0.0002 µM): 0.938 | relative viability (HOP-62; first compound 0.000632 µM): 0.744 | relative viability (HOP-62; first compound 0.002 µM): 0.509 | relative viability (HOP-62; first compound 0.006325 µM): 0.282 | relative viability (NCI-H727; first compound 0.0002 µM): 0.753 | relative viability (NCI-H727; first compound 0.000632 µM): 0.419 | relative viability (NCI-H727; first compound 0.002 µM): 0.351 | relative viability (NCI-H727; first compound 0.006325 µM): 0.353 | relative viability (NCI-H727; first compound 0.02 µM): 0.308 | relative viability (NCI-H2085; first compound 0.0002 µM): 0.378 | relative viability (NCI-H2085; first compound 0.000632 µM): 0.454 | relative viability (NCI-H2085; first compound 0.002 µM): 0.446 | relative viability (NCI-H2085; first compound 0.006325 µM): 0.322 | relative viability (NCI-H2085; first compound 0.02 µM): 0.341 | relative viability (NCI-H647; first compound 0.0002 µM): 0.112 | relative viability (NCI-H647; first compound 0.000632 µM): 0.126 | relative viability (NCI-H647; first compound 0.002 µM): 0.147 | relative viability (NCI-H647; first compound 0.006325 µM): 0.12 | relative viability (NCI-H647; first compound 0.02 µM): 0.0798 | relative viability (LCLC-97TM1; first compound 0.0002 µM): 0.71 | relative viability (LCLC-97TM1; first compound 0.000632 µM): 0.622 | relative viability (LCLC-97TM1; first compound 0.002 µM): 0.548 | relative viability (LCLC-97TM1; first compound 0.006325 µM): 0.167 | relative viability (LCLC-97TM1; first compound 0.02 µM): 0.106 | relative viability (H3255; first compound 0.0002 µM): 0.907 | relative viability (H3255; first compound 0.000632 µM): 1.12 | relative viability (H3255; first compound 0.002 µM): 0.755 | relative viability (H3255; first compound 0.006325 µM): 0.157 | relative viability (H3255; first compound 0.02 µM): 0.309 | relative viability (NCI-H1993; first compound 0.0002 µM): 0.771 | relative viability (NCI-H1993; first compound 0.000632 µM): 0.783 | relative viability (NCI-H1993; first compound 0.002 µM): 0.616 | relative viability (NCI-H1993; first compound 0.006325 µM): 0.481 | relative viability (NCI-H1993; first compound 0.02 µM): 0.446 | relative viability (SK-LU-1; first compound 0.0002 µM): 0.205 | relative viability (SK-LU-1; first compound 0.000632 µM): 0.218 | relative viability (SK-LU-1; first compound 0.006325 µM): 0.193 | relative viability (SK-LU-1; first compound 0.02 µM): 0.159 | relative viability (EPLC-272H; first compound 0.0002 µM): 0.133 | relative viability (EPLC-272H; first compound 0.000632 µM): 0.316 | relative viability (EPLC-272H; first compound 0.002 µM): 0.205 | relative viability (EPLC-272H; first compound 0.006325 µM): 0.0836 | relative viability (EPLC-272H; first compound 0.02 µM): 0.119 | relative viability (NCI-H1563; first compound 0.0002 µM): 0.518 | relative viability (NCI-H1563; first compound 0.000632 µM): 0.522 | relative viability (NCI-H1563; first compound 0.002 µM): 0.515 | relative viability (NCI-H1563; first compound 0.006325 µM): 0.457 | relative viability (NCI-H1563; first compound 0.02 µM): 0.408 | relative viability (LXF-289; first compound 0.0002 µM): 0.683 | relative viability (LXF-289; first compound 0.000632 µM): 0.694 | relative viability (LXF-289; first compound 0.002 µM): 0.138 | relative viability (LXF-289; first compound 0.006325 µM): 0.111 | relative viability (LXF-289; first compound 0.02 µM): 0.0768 | relative viability (NCI-H2126; first compound 0.0002 µM): 0.914 | relative viability (NCI-H2126; first compound 0.000632 µM): 0.739 | relative viability (NCI-H2126; first compound 0.002 µM): 0.591 | relative viability (NCI-H2126; first compound 0.006325 µM): 0.403 | relative viability (NCI-H2126; first compound 0.02 µM): 0.255 | relative viability (NCI-H2023; first compound 0.0002 µM): 0.682 | relative viability (NCI-H2023; first compound 0.000632 µM): 0.346 | relative viability (NCI-H2023; first compound 0.002 µM): 0.113 | relative viability (NCI-H2023; first compound 0.006325 µM): 0.105 | relative viability (NCI-H2023; first compound 0.02 µM): 0.0645 | relative viability (NCI-H1915; first compound 0.0002 µM): 0.838 | relative viability (NCI-H1915; first compound 0.000632 µM): 0.796 | relative viability (NCI-H1915; first compound 0.002 µM): 0.467 | relative viability (NCI-H1915; first compound 0.006325 µM): 0.141 | relative viability (NCI-H1915; first compound 0.02 µM): 0.0759 | relative viability (SW 1573; first compound 0.0002 µM): 0.165 | relative viability (SW 1573; first compound 0.000632 µM): 0.211 | relative viability (SW 1573; first compound 0.002 µM): 0.0935 | relative viability (SW 1573; first compound 0.006325 µM): 0.137 | relative viability (SW 1573; first compound 0.02 µM): 0.0617 | relative viability (PC-14; first compound 0.0002 µM): 0.199 | relative viability (PC-14; first compound 0.000632 µM): 0.162 | relative viability (PC-14; first compound 0.002 µM): 0.116 | relative viability (PC-14; first compound 0.02 µM): 0.127 | relative viability (NCI-H322M; first compound 0.0002 µM): 0.836 | relative viability (NCI-H322M; first compound 0.000632 µM): 0.891 | relative viability (NCI-H322M; first compound 0.002 µM): 0.788 | relative viability (NCI-H322M; first compound 0.006325 µM): 0.557 | relative viability (NCI-H322M; first compound 0.02 µM): 0.347
